Data set [1] can be described thus: Cellular toxicity in uninfected CEM cells (TC50). Conditions: human, inhibits 50% of the viability of uninfected cells. The format is cell-based. The protocol:
(§1) Compounds were tested in lymphocyte derived CEM cells using the XTT cytopathic procedures and were performed at Southern Research Institute (Buckheit, et. al. Antiviral Res. 1993, 21, 247; see also Weislow, et al. J Nat. Cancer Inst., 1989, 81, 577). Compound concentrations were 0.32, 1, 3.2, 10, 32 and 100 uM. The EC50 represents the concentration of agent which reduces HIV cytopathic effects 50% relative to untreated control. EC95 represents the concentration of agent protecting the cells 95% relative to untreated control. Cellular toxicity of the agents are estimated from the TC50 which represents the concentration of the agent which inhibits 50% of the viability of uninfected cells.

Data set [2] has as its system HIV in lymphocyte derived CEM cells. Kind of data set: Cellular Infection Assay, antiviral efficacy in HIV infected CEM cells (XTT cytopathic procedure). The following applies: Human immunodeficiency virus 1, CCRF-CEM, CEM cells; for EC95: protecting the cells 95% relative to untreated control; for EC50: reduces HIV cytopathic effects 50% relative to untreated control, read-out: Antiviral Efficacy EC50. It is filed as cell-based. The method, then: (§2) The compounds of the present invention were evaluated for their in vitro inhibition of HIV-1 protease and for their antiviral efficacy in HIV infected lymphocytes.
as §1

For the next data set, the target named is T1, HIV-1 protease (Human immunodeficiency virus type 1 group M subtype B, UniProt P04585).
T1 construct: Recombinant HIV-1 protease (>96% purity); purchased Bachem Bioscience Inc. (King of Prussia, PA)
Kind of data set: biochemical. Conditions: read-out: Inhib of HIV-Protease IC50.
Source text: The testing of specific 5,6-dihydropyrones as inhibitors of the HIV aspartyl protease, based on the study of the hydrolysis of an undecapeptide enzyme substrate, and the testing of the 5,6-dihydropyrones as inhibitors of viral growth and infectivity, based on the study of infection of H9 cell lines by the HIV-1iiib strain, are also disclosed. […] The methods employed follow the procedures of Tummino, et al. (Archives of Biochemistry and Biophysics 1995, 316, 523).
as §2
Recombinant HIV-1 protease (>96% purity) and HIV protease substrate III (the undecapeptide H-His-Lys-Ala-Arg-Val-Leu-Nph-Glu-Ala-Nle-Ser-NH2,>97% purity) were purchased from Bachem Bioscience Inc. (King of Prussia, PA).
The methods employed follow the procedures of Tummino, et al. (Archives of Biochemistry and Biophysics 1995, 316, 523). […] (total volume, 100 μl). […] The final inhibitor concentrations used were 0 (0.1, 0.2, in some experiments), 0.5, 1, 2, 5, 10, 20, 50, and 100 μM. The solution was mixed, incubated for 5 minutes and the reaction quenched by addition of trifluoracetic acid, 2% final. The (leu-p-nitro-phe) bond of the substrate is cleaved by the enzyme and substrate and products separated by reverse-phase HPLC. Absorbance was measured at 220 nm, peak areas determined, and percentage conversion to product used to calculate percentage control (=[% conversion (+inhibitor)/% conversion (-inhibitor)]×100).

[3] abbreviates: 6.0 nM HIV-1 protease, 40 μM substrate III, 37° C., 5 minutes.

The record followed here is patent publication US5834506A, “Dihydropyrones with improved antiviral activity” (Warner-Lambert Company, priority 1997, dated 1998).

Structures are written as SMILES. Where a name gives a salt, the structure may show the parent alone. Read-outs that look alike come from different tables or passages of the source.

Turning to `Cc1cc(SC2=C(O)CC(C)(CCc3ccc(O)cc3)OC2=O)c(C(C)(C)C)cc1OCCO` (racemic) [Example 1, 3-[2-tert-Butyl-4-(2-hydroxy-ethoxy)-5-methyl-phenylsulfanyl]-4-hydroxy-6-[2-(4-hydroxy-phenyl)-ethyl]-6-methyl-5,6-dihydro-pyran-2-one, (+/-)], in data set [1], the CC50 was above 100 µM. Moreover, in data set [2], the EC95 worked out at 18 µM and the concentration for a half-maximal effect (EC50) was 3.4 µM. Moreover, on HIV-1 protease (setting [3]), the IC50 was found to be 0.0068 µM.
For `Cc1cc(SC2=C(O)CC(CCc3ccc(O)cc3)(C(C)C)OC2=O)c(C(C)(C)C)cc1CO` (racemic) [Example 2, 3-[2-tert-Butyl-4-hydroxymethyl-5-methyl-phenylsulfanyl]-4-hydroxy-6-[2-(4-hydroxy-phenyl)-ethyl]-6-isopropyl-5,6-dihydro-pyran-2-one, (+/-)], the CC50 in data set [1] was above 100 µM. Further, in data set [2], the 95% effect level (EC95) was put at 1 µM and the EC50 was 0.6 µM. At HIV-1 protease, the IC50 turned out to be 0.0036 µM.
Take `CCNS(=O)(=O)Oc1cc(C(C)(C)C)c(SC2=C(O)CC(C)(CCc3ccc(O)cc3)OC2=O)cc1C` (racemic) [Example 3]: the CC50 in data set [1] amounted to 66 µM. Also, in data set [2], the 95% effect level (EC95) was put at 12 µM and the EC50 is 1.5 µM. For the same compound, the half-inhibitory concentration (IC50) on HIV-1 protease (setting [3]) amounted to 0.0023 µM.
In turn, `Cc1cc(SC2=C(O)CC(C)(CCc3ccc(O)cc3)OC2=O)c(C(C)(C)C)cc1OS(=O)(=O)N(C)C` (racemic) [Example 4] registered a CC50 in data set [1] of 71 µM. Besides, in data set [2], the EC95 came to 17 µM and the EC50 amounted to 2.5 µM. Besides, the IC50 at HIV-1 protease was 0.0016 µM.
For the compound `Cc1cc(SC2=C(O)CC(CCc3ccc(O)cc3)(C(C)C)OC2=O)c(C(C)(C)C)cc1OCCO` (racemic) [Example 5, 3-[2-tert-Butyl-4-(2-hydroxy-ethoxy)-5-methyl-phenylsulfanyl]-4-hydroxy-6-[2-(4-hydroxy-phenyl)-ethyl]-6-isopropyl-5,6-dihydro-pyran-2-one, (+/-)], the CC50 in data set [1] worked out at 66 µM. Moreover, in data set [2], the EC95 came to 3.2 µM and the EC50 worked out at 1.5 µM. Moreover, the concentration for half-maximal inhibition (IC50) on HIV-1 protease (setting [3]) turned out to be 0.0028 µM.
In data set [1], `Cc1cc(SC2=C(O)CC(C)(CCc3ccc(O)cc3)OC2=O)c(C(C)(C)C)cc1OS(=O)(=O)NC(C)(C)C` (racemic) [Example 6, tert-Butyl-sulfamic acid 5-tert-Butyl-4-{4-hydroxy-6-[2-(4-hydroxy-phenyl)-ethyl]-6-methyl-2-oxo-5,6-dihydro-2H-pyran-3-ylsulfanyl}-2-methyl-phenyl ester, (+/-)] registered a CC50 of 56 µM. In data set [2], the EC95 turned out to be 8.5 µM and the EC50 was 2.3 µM. Besides, at HIV-1 protease (setting [3]), the IC50 was 0.0038 µM.
On to `CCCCC1(CCc2ccc(O)cc2)CC(O)=C(Sc2cc(C)c(CO)cc2C(C)(C)C)C(=O)O1` (racemic) [Example 7, 6-Butyl-3-[2-tert-butyl-4-hydroxymethyl-5-methyl-phenylsulfanyl]-4-hydroxy-6-[2-(4-hydroxy-phenyl)-ethyl]-5,6-dihydro-pyran-2-one, (+/-)], for which, in data set [1], the CC50 came to 63 µM. Also, in data set [2], the 95% effect level (EC95) was put at 3 µM and the EC50 worked out at 0.9 µM. Further, on HIV-1 protease (setting [3]), the 50% inhibitory concentration (IC50) worked out at 0.0041 µM.
Take `Cc1ccc(C(C)(C)C)c(SC2=C(O)CC(CCc3ccccc3)(c3ccccc3)OC2=O)c1` (racemic) [Ref B, 3-(2-tert-Buty5-methyl-phenylsulfanyl)-4-hydroxy-6-phenethyl-6-phenyl-5,6-dihydro-pyran-2-one, (+/-), reference compound]: in data set [1], the midpoint of cytotoxicity, the CC50, lay at 55 µM. Also, the EC50 in data set [2] is above 55 µM. Moreover, the concentration for half-maximal inhibition (IC50) at HIV-1 protease worked out at 0.035 µM.
Consider `CCNS(=O)(=O)Oc1cc(C(C)(C)C)c(SC2=C(O)CC(CCc3ccc(O)cc3)(C3CCCCC3)OC2=O)cc1C` (stereo not drawn) [Example 8, Ethyl-sulfamic acid 5-tert-butyl-4-{6-cyclohexyl-4-hydroxy-6-[2-(4-hydroxy-phenyl)-ethyl]-2-oxo-5,6-dihydro-2H-pyran-3-ylsulfanyl}-2-methyl-phenyl ester], for which, in data set [1], the midpoint of cytotoxicity, the CC50, lay at 67 µM. In addition, in data set [2], the EC95 stood at 5.3 µM and the EC50 was 1.4 µM. In addition, the IC50 on HIV-1 protease (setting [3]) was found to be 0.0048 µM.
In the case of `Cc1cc(SC2=C(O)CC(CCc3ccc(O)cc3)(C3CCCCC3)OC2=O)c(C(C)(C)C)cc1CO` (stereo not drawn) [Example 9, 3-(2-tert-Butyl-4-hydroxymethyl-5-methyl-phenylsulfanyl)-6-cyclohexyl-4-hydroxy-6-[2-(4-hydroxy-phenyl)-ethyl]-5,6-dihydro-pyran-2-one], the CC50 in data set [1] is 75 µM. Moreover, in data set [2], the EC95 worked out at 1.2 µM and the EC50 turned out to be 0.5 µM. The half-maximal inhibitory concentration (IC50) at HIV-1 protease came out at 0.0025 µM.
Consider `Cc1cc(SC2=C(O)CC(CCc3ccc(O)cc3)(C3CCCCC3)OC2=O)c(C(C)(C)C)cc1O` (stereo not drawn) [Example 10, 3-(2-tert-Butyl-4-hydroxy-5-methyl-phenylsulfanyl)-6-cyclohexyl-4-hydroxy-6-[2-(4-hydroxy-phenyl)-ethyl]-5,6-dihydro-pyran-2-one], for which, in data set [1], the CC50 stood at 73 µM. Moreover, in data set [2], the 95% effect level (EC95) was put at 8.9 µM and the EC50 amounted to 3.1 µM. The IC50 on HIV-1 protease (setting [3]) stood at 0.0029 µM.
The matching figures for `Cc1cc(SC2=C(O)CC(C)(CCc3ccc(O)cc3)OC2=O)c(C(C)(C)C)cc1N` (stereo not drawn) [Example 11, 3-(4-Amino-2-tert-butyl-5-methyl-phenylsulfanyl)-4-hydroxy-6-[2-(4-hydroxy-phenyl)-ethyl]-6-methyl-5,6-dihydro-pyran-2-one monohydrochloride]: above 100 µM, 9.1 µM, 3.7 µM and 0.013 µM.
In data set [1], `Cc1cc(SC2=C(O)CC(C)(CCc3ccc(O)cc3)OC2=O)c(C(C)(C)C)cc1NS(=O)(=O)c1ccc(C#N)cc1` (stereo not drawn) [Example 13, N-(5-tert-Butyl-4-{4-hydroxy-6-[2-(4-hydroxy-phenyl)-ethyl]-6-methyl-2-oxo-5,6-dihydro-2H-pyran-3-ylsulfanyl}-2-methyl-phenyl)-4-cyano-benzenesulfonamide] displayed a CC50 above 100 µM. In data set [2], the concentration for an effect of 95% (EC95) worked out at 20 µM and the EC50 was found to be 5 µM. Besides, at HIV-1 protease (setting [3]), the IC50 amounted to 0.0021 µM.
Regarding `Cc1cc(SC2=C(O)CC(CCc3ccc(O)cc3)(CCc3ccc(O)cc3)OC2=O)c(C(C)(C)C)cc1CO` [Example 14, 3-(2-tert-Buty-4-hydroxymethyl-5-methyl-phenylsulfanyl)-4-hydroxy-6,6-bis-[2-(4-hydroxyphenyl)ethyl]-5,6-dihydro-pyran-2-one], in data set [1], the CC50 came out at 69 µM. In data set [2], the EC95 came out at 24 µM and the EC50 worked out at 6.3 µM. For the same compound, the IC50 at HIV-1 protease (setting [3]) came out at 0.0013 µM.
As to `Cc1cc(SC2=C(O)CC(CCc3ccc(N)cc3)(c3ccccc3)OC2=O)c(C(C)(C)C)cc1CO` (stereo not drawn) [Example 15, 6-[2-(4-aminophenyl)ethyl]-3-(2-tert-butyl-4-hydroxymethyl-5-methyl-phenylsulfanyl)-4-hydroxy-6-phenyl-5,6-dihydro-pyran-2-one], it took 94 µM to reach half-maximal cytotoxicity in data set [1] (CC50). Also, in data set [2], the EC95 worked out at 9.4 µM and the EC50 was found to be 3.7 µM. Besides, on HIV-1 protease (setting [3]), the IC50 was found to be 0.0031 µM.
As to `Cc1cc(SC2=C(O)CC(CCc3ccc(N)cc3)(CCc3ccc(N)cc3)OC2=O)c(C(C)(C)C)cc1CO` [Example 16, 6,6-Bis-[2-(4-aminophenyl)ethyl]-3-(2-tert-butyl-4-hydroxymethyl-5-methyl-phenylsulfanyl)-4-hydroxy-5,6-dihydro-pyran-2-one], the CC50 in data set [1] was determined as 72 µM. For the same compound, in data set [2], it took 15 µM to reach the 95% level (EC95) and the EC50 was found to be 1.2 µM. The half-maximal inhibitory concentration (IC50) at HIV-1 protease (setting [3]) came out at 0.0016 µM.
For the compound `Cc1cc(SC2=C(O)C[C@@](CCc3cccc(O)c3)(C3CCCC3)OC2=O)c(C(C)(C)C)cc1CO` [Example 40], in data set [1], the CC50 was above 100 µM. In addition, in data set [2], the concentration for an effect of 95% (EC95) is below 0.3 µM and the concentration for a half-maximal effect (EC50) is below 0.3 µM.
`CCc1cc(SC2=C(O)CC(CCc3ccc(O)cc3)(C(C)C)OC2=O)c(C(C)(C)C)cc1CO` (stereo not drawn) [Example 97]: the cytotoxic concentration (CC50) in data set [1] was above 100 µM. Moreover, in data set [2], the 95% effect level (EC95) was put at 2.8 µM and the EC50 is 0.8 µM.
The matching figures for `Cc1cc(CCC2(C(C)C)CC(O)=C(Sc3cc(C)c(CO)cc3C(C)(C)C)C(=O)O2)ccc1O` (stereo not drawn) [Example 100]: 84 µM, 0.9 µM and 0.33 µM.

Usually CC50 stands for the concentration at which the toxic effect on the cells reaches its halfway point. Read a high CC50 as lower toxicity to the cells. One may read the EC95 as the point of the concentration-response curve where the effect stands at 95%. A higher EC95 goes with weaker potency. The EC50 is the concentration needed to bring the measured effect to its halfway point. For orientation: IC50 means the midpoint of a concentration-inhibition curve.
